# Experimental data: patent publication US20250107544A1, “4-(3-OXO-2-(PENT-2-ENYL)CYCLOPENTYL) BUTANOIC ACID MIXTURES AND USES THEREOF” (Valent BioSciences LLC., priority 2023, published 2025)
# How the values were obtained:
# [1] = tested on: unripened apples, Pink Lady variety; assay: Apple coloration in Pink Lady variety (Example 1), percent red pixel area after foliar spray; assay type: in vivo; conditions: for Average % Red Pixel Area: 34 hours post spray; for % change from control: vs 0.05% Regulaid control
# Description: 10 sets of unripened apples, Pink Lady variety, harvested three weeks before the normal harvest date, were each foliar sprayed with either 1) 0.05% Regulaid® as a control, 2) 30 ppm OPC4, 3) 100 ppm OPC4, 4) 300 ppm OPC4, 5) 1,000 ppm OPC4, 6) 50 ppm ACC, 7) 50 ppm jasmonic acid, 8) a mixture of 30 ppm OPC4 and 50 ppm ACC, 9) a mixture of 100 ppm OPC4 and 50 ppm ACC, 10) a mixture of 300 ppm OPC4 and 50 ppm ACC, 11) a mixture of 1,000 ppm OPC4 and 50 ppm ACC, 12) a mixture of 30 ppm OPC4 and 50 ppm jasmonic acid, 13) a mixture of 100 ppm OPC4 and 50 ppm jasmonic acid, 14) a mixture of 300 ppm OPC4 and 50 ppm jasmonic acid, 15) a mixture of 1,000 ppm OPC4 and 50 ppm jasmonic acid. 34 hours post spray application percent red pixel area (shaded) was measured. Percent red pixel area is an indication of the coloration of the apple fruit.
# (§1) To determine if the mixture provided unexpected results, the observed combined efficacy (“OCE”) was divided by the expected combined efficacy (“ECE”) wherein the ECE is calculated by the Abbott method: […]
# (§2) wherein ECE is the expected combined efficacy and in which A and B are the percent change from control given by the single active ingredients. If the ratio between the OCE of the mixture and the ECE of the mixture is greater than 1, then greater than expected interactions are present in the mixture. (Gisi, Synergistic Interaction of Fungicides in Mixtures, The American Phytopathological Society, 86:11, 1273-1279,1996).
# [2] = tested on: unripened apples, Pink Lady variety; assay: Apple coloration in Pink Lady variety (Example 2), percent red pixel area after foliar spray; assay type: in vivo; conditions: for Average % Red Pixel Area: 34 hours post spray; for % change from control: vs 0.05% Regulaid control
# Procedure: as §1, §2
# 10 sets of unripened apples, Pink Lady variety, harvested three weeks before the normal harvest date, were each foliar sprayed with either 1) 0.05% Regulaid® as a control, 2) 10 ppm OPC4, 3) 100 ppm OPC4, 4) 100 ppm ACC, 5) 100 ppm jasmonic acid, 6) a mixture of 10 ppm OPC4 and 100 ppm ACC, 7) a mixture of 100 ppm OPC4 and 100 ppm ACC, 8) a mixture of 10 ppm OPC4 and 100 ppm jasmonic acid and 9) a mixture of 100 ppm OPC4 and 100 ppm jasmonic acid. 34 hours post spray application percent red pixel area (shaded) was measured. Percent red pixel area is an indication of the coloration of the apple fruit.
SMILES,Average % Red Pixel Area ([1]; 50 ppm foliar spray) [%],% change from control ([1]; 50 ppm foliar spray) [%],Average % Red Pixel Area ([2]; 100 ppm foliar spray) [%],% change from control ([2]; 100 ppm foliar spray) [%],Average % Red Pixel Area ([1]; 30 ppm foliar spray) [%],% change from control ([1]; 30 ppm foliar spray) [%],Average % Red Pixel Area ([1]; 100 ppm foliar spray) [%],% change from control ([1]; 100 ppm foliar spray) [%],Average % Red Pixel Area ([1]; 300 ppm foliar spray) [%],% change from control ([1]; 300 ppm foliar spray) [%],Average % Red Pixel Area ([1]; 1000 ppm foliar spray) [%],% change from control ([1]; 1000 ppm foliar spray) [%],Average % Red Pixel Area ([2]; 10 ppm foliar spray) [%],% change from control ([2]; 10 ppm foliar spray) [%]
"NC1(C(=O)O)CC1 [ACC, 1-amino-1-cyclopropanecarboxylic acid, reference compound]",9.33,0.23,19.32,−0.20,,,,,,,,,,
"CC/C=C\C[C@H]1C(=O)CC[C@@H]1CC(=O)O [JA, jasmonic acid, reference compound]",39.64,4.22,49.9,1.06,,,,,,,,,,
"CCC=CCC1C(=O)CCC1CCCC(=O)O (centres unmarked) [OPC4, 4-(3-oxo-2-(pent-2-enyl)cyclopentyl) butanoic acid]",,,43.59,0.80,13.37,0.76,36.02,3.74,65.59,7.63,54.35,6.15,18.85,−0.22
